Measured values as given in patent publication US20100056508A1, “AMINE DERIVATIVES AND THEIR USE IN BETA-2-ADRENORECEPTOR MEDIATED DISEASES” (ASTRAZENECA AB, priority 2006, published 2010).
Counter-ions that a name gives are not always drawn.

Legend:
Adrenergic β2 = biological target: T1, Adrenergic β2 (Homo sapiens, UniProt P07550); assay: Adrenergic β2 mediated cAMP production in H292 cells (AlphaScreen cAMP detection); assay type: cell-based; set-up: key to β2 Int Act: fraction of formoterol maximum activity (formoterol = 1); conditions: for β2 Int Act: Intrinsic Activity as a fraction relative to the maximum activity determined for formoterol; for EC50: cAMP production, 60 minutes at room temperature, 300 μM rolipram, read-out: β2 pEC50 (converted)
T1 construct: Adherent H292 cells were removed from tissue culture flasks; endogenous in cells; host or cells: H292 cells
T1 sequence (P07550 whole entry): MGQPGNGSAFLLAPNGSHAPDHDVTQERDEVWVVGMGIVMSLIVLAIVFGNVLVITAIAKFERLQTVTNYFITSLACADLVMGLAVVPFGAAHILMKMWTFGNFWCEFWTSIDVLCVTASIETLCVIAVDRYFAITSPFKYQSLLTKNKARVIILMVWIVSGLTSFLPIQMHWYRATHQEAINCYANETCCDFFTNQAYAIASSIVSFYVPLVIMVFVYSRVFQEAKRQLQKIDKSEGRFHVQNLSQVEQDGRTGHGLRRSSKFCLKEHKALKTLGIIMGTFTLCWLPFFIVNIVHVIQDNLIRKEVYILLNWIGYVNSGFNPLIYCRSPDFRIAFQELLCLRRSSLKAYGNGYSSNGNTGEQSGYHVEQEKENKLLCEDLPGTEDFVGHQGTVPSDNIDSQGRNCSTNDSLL
Protocol: Adrenergic β2 Mediated cAMP Production
H292 cells were grown in 225 cm2 flasks incubator at 37° C., 5% CO2 in RPMI medium containing, 10% (v/v) FBS (foetal bovine serum) and 2 mM L-glutamine.
Adherent H292 cells were removed from tissue culture flasks by treatment with Accutase™ cell detachment solution for 15 minutes. Flasks were incubated for 15 minutes in a humidified incubator at 37° C., 5% CO2. Detached cells were re-suspended in RPMI media (containing 10% (v/v) FBS and 2 mM L-glutamine) at 1×10^6 cells per mL. 10000 cells in 100 μL were added to each well of a tissue-culture-treated 96-well plate and the cells incubated overnight in a humidified incubator at 37° C., 5% CO2. The culture media was removed and cells were washed twice with 100 μL assay buffer and replaced with 50 μL assay buffer (HBSS solution containing 10 mM HEPES pH7.4 and 5 mM glucose). Cells were rested at room temperature for 20 minutes after which time 25 μL of rolipram (1.2 mM made up in assay buffer containing 2.4% (v/v) dimethylsulphoxide) was added. Cells were incubated with rolipram for 10 minutes after which time test compounds were added and the cells were incubated for 60 minutes at room temperature. The final rolipram concentration in the assay was 300 μM and final vehicle concentration was 1.6% (v/v) dimethylsulphoxide. The reaction was stopped by removing supernatants, washing once with 100 μL assay buffer and replacing with 50 μL lysis buffer. The cell monolayer was frozen at −80° C. for 30 minutes (or overnight).
AlphaScreen™ cAMP Detection
The concentration of cAMP (cyclic adenosine monophosphate) in the cell lysate was determined using AlphaScreen™ methodology. The frozen cell plate was thawed for 20 minutes on a plate shaker then 10 μL of the cell lysate was transferred to a 96-well white plate. 40 μL of mixed AlphaScreen™ detection beads pre-incubated with biotinylated cAMP, was added to each well and the plate incubated at room temperature for 10 hours in the dark. The AlphaScreen™ signal was measured using an EnVision spectrophotometer (Perkin-Elmer Inc.) with the recommended manufacturer's settings. cAMP concentrations were determined by reference to a calibration curve determined in the same experiment using standard cAMP concentrations. Concentration response curves for agonists were constructed and data was fitted to a four parameter logistic equation to determine both the pEC50 and Intrinsic Activity. Intrinsic Activity was expressed as a fraction relative to the maximum activity determined for formoterol in each experiment.

[1] = biological target: T2, recombinant human Dopamine Subtype D2s receptors (Homo sapiens, UniProt P14416); assay: Dopamine D2 selectivity assay, [3H]-spiperone binding to membranes; conditions: inhibition of [3H]-spiperone binding, read-out: D2 bind pIC50 (converted)
T2 construct: purchased Perkin Elmer
T2 sequence (P14416 1-414 isoform P14416-2): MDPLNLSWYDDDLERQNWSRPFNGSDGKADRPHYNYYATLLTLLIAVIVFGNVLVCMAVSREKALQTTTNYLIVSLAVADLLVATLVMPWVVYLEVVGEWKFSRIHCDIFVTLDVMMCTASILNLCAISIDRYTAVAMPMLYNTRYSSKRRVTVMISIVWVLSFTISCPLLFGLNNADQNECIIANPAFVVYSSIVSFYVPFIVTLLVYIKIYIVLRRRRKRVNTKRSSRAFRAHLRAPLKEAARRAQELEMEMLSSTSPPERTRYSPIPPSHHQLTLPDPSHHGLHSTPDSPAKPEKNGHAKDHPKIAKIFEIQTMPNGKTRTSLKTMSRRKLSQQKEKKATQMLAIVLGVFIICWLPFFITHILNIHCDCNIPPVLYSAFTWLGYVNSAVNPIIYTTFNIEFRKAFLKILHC
Protocol: Membranes containing recombinant human Dopamine Subtype D2s receptors were obtained from Perkin Elmer. These were diluted in Assay Buffer (50 mM HEPES, 1 mM EDTA, 120 mM NaCl, 0.1% gelatin, pH 7.4) to provide a final concentration of membranes that gave a clear window between maximum and minimum specific binding.
Assays were performed in U-bottomed 96-well polypropylene plates. 30 μL [^3H]-spiperone (0.16 nM final concentration) and 30 μL of test compound (10× final concentration) were added to each test well. For each assay plate 8 replicates were obtained for [^3H]-spiperone binding in the presence of 30 μL vehicle (10% (v/v) DMSO in Assay Buffer; defining maximum binding) or 30 μL Haloperidol (10 μM final concentration; defining non-specific binding (NSB)). Membranes were then added to achieve a final volume of 300 μL. The plates were incubated for 2 hours at room temperature and then filtered onto PEI coated GF/B filter plates, pre-soaked for 1 hour in Assay Buffer, using a 96-well plate Tomtec cell harvester. Five washes with 250 μL wash buffer (50 mM HEPES, 1 mM EDTA, 120 mM NaCl, pH 7.4) were performed at 4° C. to remove unbound radioactivity. The plates were dried then sealed from underneath using Packard plate sealers and MicroScint-0 (50 μL) was added to each well. The plates were sealed (TopSeal A) and filter-bound radioactivity was measured with a scintillation counter (TopCount, Packard BioScience) using a 3-minute counting protocol.
(§1) Total specific binding (B0) was determined by subtracting the mean NSB from the mean maximum binding. NSB values were also subtracted from values from all other wells. […] Data was fitted to a four parameter logistic equation to determine the compound potency, which was expressed as pIC50 (negative log molar concentration inducing 50% inhibition of [^3H]-spiperone binding).

[2] = biological target: T3, recombinant human α1D receptor (Homo sapiens, UniProt P25100); assay: Adrenergic α1D selectivity assay, [3H]-prazosin binding to membranes; conditions: inhibition of [3H]-prazosin binding, HEK cell membranes, read-out: α1 bind pIC50 (converted)
T3 construct: expressed in transfected cells; host or cells: human embryonic kidney 293 cells (HEK93 [sic]), membranes
T3 sequence (P25100 1-572): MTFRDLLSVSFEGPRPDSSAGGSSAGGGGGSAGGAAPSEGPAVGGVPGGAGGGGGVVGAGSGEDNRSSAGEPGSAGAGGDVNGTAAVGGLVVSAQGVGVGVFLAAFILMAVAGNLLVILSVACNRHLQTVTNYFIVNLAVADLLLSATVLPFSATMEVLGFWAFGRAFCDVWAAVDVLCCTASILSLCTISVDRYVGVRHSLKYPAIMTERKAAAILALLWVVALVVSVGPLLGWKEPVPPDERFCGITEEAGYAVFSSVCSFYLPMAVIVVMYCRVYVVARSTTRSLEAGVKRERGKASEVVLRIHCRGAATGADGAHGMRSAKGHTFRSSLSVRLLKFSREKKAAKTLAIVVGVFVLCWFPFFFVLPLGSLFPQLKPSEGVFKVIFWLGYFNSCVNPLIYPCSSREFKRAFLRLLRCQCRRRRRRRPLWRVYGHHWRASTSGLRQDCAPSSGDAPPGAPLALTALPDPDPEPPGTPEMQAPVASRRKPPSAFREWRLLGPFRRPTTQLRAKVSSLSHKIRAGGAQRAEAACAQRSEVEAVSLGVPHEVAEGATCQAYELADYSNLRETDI
Protocol: Membranes were prepared from human embryonic kidney 293 ([…]) cells expressing recombinant human α1D receptor. These were diluted in Assay Buffer (50 mM HEPES, 1 mM EDTA, pH 7.4) to provide a final concentration of membranes that gave a clear window between maximum and minimum specific binding.
Assays were performed in U-bottomed 96-well polypropylene plates. 10 μL [^3H]-prazosin (0.3 nM final concentration) and […] of test compound (10× final concentration) were added to each test well. For each assay plate 8 replicates were obtained for [^3H]-prazosin binding in the presence of 10 μL vehicle (10% (v/v) DMSO in Assay Buffer; defining maximum binding) or 10 μL BMY7378 (10 μM final concentration; defining non-specific binding (NSB)). Membranes were then added to achieve a final volume of 100 μL. The plates were incubated for 2 hours at room temperature and then filtered onto PEI coated GF/B filter plates, pre-soaked for 1 hour in Assay Buffer, using a 96-well plate Tomtec cell harvester. Five washes with 250 μL wash buffer (50 mM HEPES, 1 mM EDTA, pH 7.4) were performed at 4° C. to remove unbound radioactivity. The plates were dried then sealed from underneath using Packard plate sealers and MicroScint-O (50 μL) was added to each well. The plates were sealed (TopSeal A) and filter-bound radioactivity was measured with a scintillation counter (TopCount, Packard BioScience) using a 3-minute counting protocol.
as §1, with “[^3H]-prazosin” for “[^3H]-spiperone”

| β2 Int Act (Adrenergic β2) | EC50 (Adrenergic β2) [µM] | IC50 [1] [µM] | IC50 [2] [µM] | Structure (SMILES) |
| --- | --- | --- | --- | --- |
| 0.9 | 0.398 | – | – | CCCCN(CCNCCc1ccc(O)c2[nH]c(=O)ccc12)C(=O)CCOCCc1ccccc1 [Example 1, N-Butyl-N-(2-(2-(8-hydroxy-2-oxo-1,2-dihydroquinolin-5-yl)ethylamino)ethyl)-3-phenethoxypropanamide hydrochloride] |
| 0.82 | 0.00794 | 0.501 | 0.158 | O=C(CCNCCc1cccc(F)c1)N(CCNCCc1ccc(O)c2[nH]c(=O)ccc12)C1CCCCCC1 [Example 5, N-Cycloheptyl-3-(3-fluorophenethylamino)-N-(2-(2-(8-hydroxy-2-oxo-1,2-dihydroquinolin-5-yl)ethylamino)ethyl)propanamide bis(trifluoroacetate)] |
| 0.65 | 0.0316 | 0.251 | 0.0501 | O=C(CCNCCc1ccc(F)cc1)N(CCNCCc1ccc(O)c2[nH]c(=O)ccc12)C1CCCCCC1 [Example 6, N-Cycloheptyl-3-(4-fluorophenethylamino)-N-(2-(2-(8-hydroxy-2-oxo-1,2-dihydroquinolin-5-yl)ethylamino)ethyl)propanamide bis(trifluoroacetate)] |
| 0.76 | 0.01 | 0.316 | 0.126 | O=C(CCNCCc1ccccc1)N(CCNCCc1ccc(O)c2[nH]c(=O)ccc12)C1CCCCCC1 [Example 7, N-Cycloheptyl-N-(2-(2-(8-hydroxy-2-oxo-1,2-dihydroquinolin-5-yl)ethylamino)ethyl)-3-(phenethylamino)propanamide bis(trifluoroacetate)] |
| 0.79 | 0.00631 | 0.398 | 0.1 | Cc1cccc(CCNCCC(=O)N(CCNCCc2ccc(O)c3[nH]c(=O)ccc23)C2CCCCCC2)c1 [Example 8, N-Cycloheptyl-N-(2-(2-(8-hydroxy-2-oxo-1,2-dihydroquinolin-5-yl)ethylamino)ethyl)-3-(3-methylphenethylamino)propanamide bis(trifluoroacetate)] |
| 0.91 | 0.0398 | – | – | C[C@H](CNCCC(=O)N(CCNCCc1ccc(O)c2[nH]c(=O)ccc12)C1CCCCCC1)c1ccccc1 [Example 9, (S)—N-Cycloheptyl-N-(2-(2-(8-hydroxy-2-oxo-1,2-dihydroquinolin-5-yl)ethylamino)ethyl)-3-(2-phenylpropylamino)propanamide bis(trifluoroacetate)] |
| 0.67 | 0.0501 | 0.126 | 0.316 | O=C(CCNCCc1cccc(-c2ccccc2)c1)N(CCNCCc1ccc(O)c2[nH]c(=O)ccc12)C1CCCCCC1 [Example 12, 3-(2-(Biphenyl-3-yl)ethylamino)-N-cycloheptyl-N-(2-(2-(8-hydroxy-2-oxo-1,2-dihydroquinolin-5-yl)ethylamino)ethyl)propanamide bis(trifluoroacetate)] |
| 0.87 | 0.01 | 1.26 | 0.2 | O=C(CCNCCc1cccc(F)c1)N(CCNCCc1ccc(O)c2[nH]c(=O)ccc12)C1CCCCC1 [Example 19, N-Cyclohexyl-3-(3-fluorophenethylamino)-N-(2-(2-(8-hydroxy-2-oxo-1,2-dihydroquinolin-5-yl)ethylamino)ethyl)propanamide] |
| 0.86 | 0.00251 | 0.0794 | 0.0398 | O=C1COc2c(CCNCCN(C(=O)CCNCCc3ccccc3Cl)C3CCCCC3)ccc(O)c2N1 [Example 28, 3-(2-Chlorophenethylamino)-N-cyclohexyl-N-(2-(2-(5-hydroxy-3-oxo-3,4-dihydro-2H-benzo[b][1,4]oxazin-8-yl)ethylamino)ethyl)propanamide bis(trifluoroacetate)] |
| 1.01 | 0.02 | – | 0.794 | O=C(CCOCCc1cc(F)cc(F)c1)N(CCNCCc1ccc(O)c2[nH]c(=O)ccc12)C1CCCCC1 [Example 78, N-Cyclohexyl-3-(3,5-difluorophenethoxy)-N-(2-(2-(8-hydroxy-2-oxo-1,2-dihydroquinolin-5-yl)ethylamino)ethyl)propanamide trifluoroacetate] |

| Structure (SMILES) | β2 Int Act (Adrenergic β2) | EC50 (Adrenergic β2) [µM] | IC50 [1] [µM] | IC50 [2] [µM] |
| --- | --- | --- | --- | --- |
| O=C1Cc2c(CCNCCN(C(=O)CCNCCc3cccc(F)c3)C3CCCCC3)ccc(O)c2N1 [Example 20, N-Cyclohexyl-3-(3-fluorophenethylamino)-N-(2-(2-(7-hydroxy-2-oxoindolin-4-yl)ethylamino)ethyl)propanamide dihydrobromide] | 0.78 | 0.00794 | 0.398 | 0.158 |
